Like-named read-outs stand apart in the source and are kept apart here. Where a SMILES comes first, the peptide text is derived from it. [ ]: non-standard residue; d: D form. The star is where a group is joined. Gly(cPent) = N[C@H](C(=O)O)C1CCCC1; Chg = N[C@H](C(=O)O)C1CCCCC1; Lac = C[C@H](O)C(=O)O; Glycolyl = O=C(CO)*; Sar = CNCC(=O)O
Key:
[1] = test system: aldosterone production; type: cell-based
Description: (§1) The octapeptides of the formula (I) are purified in a manner known per se, preferably by cellulose ion exchange chromatography. As a result, compounds are generally obtained as lyophilized powders, which can be converted into the corresponding acid addition salts or complexes. The inhibiting effect of the compounds of the formula (I) on the aldosterone production and vasoconstriction was tested in in vitro experiments.

[2] = test system: isolated rabbit aorta vessel preparate; type: cell-based
Description: as §1
In the latter test the inhibition of vasoconstriction induced by AII is measured on isolated rabbit aorta vessel preparate [J. Pharmacol. Exp. Ther., 108, 129 (1953)].

[3] = test system: awake rats; assay: hypotensive activity in vivo on awake rats (modified method by Pals), AII challenge; parameters: species or system rat; conditions: peptide 1 mg/kg subcutaneously, 1.0 μg/kg AII intravenously from the fifth minute over three hours
Description: The hypotensive activity of the new compounds was tested in vivo on awake rats, according to the modified method by Pals [Circ. Res. 29, 664 (1971)].
The results are illustrated in FIG. 1.
At first a dose--effect curve was registered for AII on rats. The peptides were administered subcutaneously, in 1 mg/kg doses. In the fifth minute after administration and repeatedly in the next three hours 1.0 μg/kg of AII was added intravenously. The statistical evalulation was performed by variancy analysis.

[4] = test system: awake rats; assay: temporary (initial) hypertensive activity on awake rats; type: in vivo, rat; conditions: administered into the jugular vein every 20 minutes
Description: The temporary hypertensive activity of the AII analogues was tested also on awake rats. AII analogues were administered into the jugular vein in every 20 minutes. The results were evaluated by variancy analysis. The comparative results obtained on [Sar^1, Chg^5, Lac^8 ]-AII are shown on FIG. 2.

[5] = Eur. J. Clin. Pharm., 23, 7 (1982); cited from earlier work
[6] = test system: aldosterone release; conditions: Eur. J. Clin. Pharm., 23, 7 (1982); cited from earlier work

CC(C)[C@H](NC(=O)[C@H](CCCNC(=N)N)NC(=O)CO)C(=O)N[C@@H](Cc1ccc(O)cc1)C(=O)N[C@H](C(=O)N[C@@H](Cc1c[nH]cn1)C(=O)N1CCC[C@H]1C(=O)O[C@@H](C)C(=O)O)C1CCCCC1 [HOAc^1, CHg^5, Lac^8 --AII] (Glycolyl-RVY[Chg]HP[Lac]-OH)
inhibition of aldosterone production pA2 [1]: 8.614
vasoconstriction inhibition, pA2 [2]: 9.53

CC(C)[C@H](NC(=O)[C@H](CCCNC(=N)N)NC(=O)[C@H](C)O)C(=O)N[C@@H](Cc1ccc(O)cc1)C(=O)N[C@H](C(=O)N[C@@H](Cc1c[nH]cn1)C(=O)N1CCC[C@H]1C(=O)O[C@@H](C)C(=O)O)C1CCCC1 [Lac^1, Cpg^5, Lac^8 --AII] (H-[Lac]RVY[Gly(cPent)]HP[Lac]-OH)
inhibition of aldosterone production pA2 [1]: 8.392
vasoconstriction inhibition, pA2 [2]: 8.52

CC[C@H](C)[C@H](NC(=O)[C@@H]1CCCN1C(=O)[C@H](Cc1c[nH]cn1)NC(=O)[C@@H](NC(=O)[C@H](Cc1ccc(O)cc1)NC(=O)[C@@H](NC(=O)[C@H](CCCNC(=N)N)NC(=O)CON)C(C)C)[C@@H](C)CC)C(=O)O [OGly^1, Ile^8 --AII, reference compound]
inhibition of aldosterone production pA2 [1]: 7.94

CNCC(=O)N[C@@H](CCCNC(=N)N)C(=O)N[C@H](C(=O)N[C@@H](Cc1ccc(O)cc1)C(=O)N[C@H](C(=O)N[C@@H](Cc1c[nH]cn1)C(=O)N1CCC[C@H]1C(=O)N[C@@H](C)C(=O)O)C1CCCCC1)C(C)C [Sar^1, Chg^5, Ala^8 --AII, Sar^1, Chg^5, Ala^8 -AII]
inhibition of aldosterone production pA2 [1]: 9.981
vasoconstriction inhibition, pA2 [2]: 11.18
duration of hypotensive activity compared with Saralasin (FIG. 1) [3]: signicantly more prolonged hypotensive activity than Saralasin

CNCC(=O)N[C@@H](CCCN=C(N)N)C(=O)N[C@H](C(=O)N[C@@H](Cc1ccc(O)cc1)C(=O)N[C@H](C(=O)N[C@@H](Cc1c[nH]cn1)C(=O)N1CCC[C@H]1C(=O)O[C@@H](C)C(=O)O)C1CCCCC1)C(C)C [Sar^1, Chg^5, Lac^8 --AII] (H-[Sar]RVY[Chg]HP[Lac]-OH)
initial hypertensive activity compared with Saralasin (FIG. 2) [4]: significantly lower initial hypertensive activity than Salarasine

CNCC(=O)N[C@@H](CCCNC(=N)N)C(=O)N[C@H](C(=O)N[C@@H](Cc1ccc(O)cc1)C(=O)N[C@H](C(=O)N[C@@H](Cc1c[nH]cn1)C(=O)N1CCC[C@H]1C(=O)O[C@@H](C)C(=O)O)C1CCCCC1)C(C)C [Sar^1, Chg^5, Lac^8 --AII] (H-[Sar]RVY[Chg]HP[Lac]-OH)
inhibition of aldosterone production pA2 [1]: 10.390
vasoconstriction inhibition, pA2 [2]: 11.29

CNCC(=O)N[C@@H](CCCNC(=N)N)C(=O)N[C@H](C(=O)N[C@@H](Cc1ccc(O)cc1)C(=O)N[C@H](C(=O)N[C@@H](Cc1c[nH]cn1)C(=O)N1CCC[C@H]1C(=O)N[C@@H](C)C(=O)O)C1CCCC1)C(C)C [Sar^1, Cpg^5, Ala^8 --AII]
inhibition of aldosterone production pA2 [1]: 9.933
vasoconstriction inhibition, pA2 [2]: 9.42

CNCC(=O)N[C@@H](CCCNC(=N)N)C(=O)N[C@H](C(=O)N[C@@H](Cc1ccc(O)cc1)C(=O)N[C@H](C(=O)N[C@@H](Cc1c[nH]cn1)C(=O)N1CCC[C@H]1C(=O)O[C@@H](C)C(=O)O)C1CCCC1)C(C)C [Sar^1, Cpg^5, Lac^8 --AII] (H-[Sar]RVY[Gly(cPent)]HP[Lac]-OH)
inhibition of aldosterone production pA2 [1]: 9.649
vasoconstriction inhibition, pA2 [2]: 11.09

CC[C@H](C)[C@H](NC(=O)[C@H](Cc1ccc(O)cc1)NC(=O)[C@@H](NC(=O)[C@H](CCCNC(=N)N)NC(=O)CNC)C(C)C)C(=O)N[C@@H](Cc1c[nH]cn1)C(=O)N1CCC[C@H]1C(=O)N[C@H](C(=O)OC)[C@@H](C)CC [Sar^1, Ile^8 --AII--OMe, reference compound]
inhibition of aldosterone production pA2 [1]: 8.98

CC[C@H](C)[C@H](NC(=O)[C@H](Cc1ccc(O)cc1)NC(=O)[C@@H](NC(=O)[C@H](CCCNC(=N)N)NC(=O)CNC)C(C)C)C(=O)N[C@@H](Cc1c[nH]cn1)C(=O)N1CCC[C@H]1C(=O)O[C@@H](C)C(=O)O [Sar^1, Lac^8 --AII, reference compound]
inhibition of aldosterone production pA2 [1]: 9.649
vasoconstriction inhibition, pA2 [2]: 11.02

CCOC(=O)[C@H](C)OC(=O)[C@@H]1CCCN1C(=O)[C@H](Cc1c[nH]cn1)NC(=O)[C@@H](NC(=O)[C@H](Cc1ccc(O)cc1)NC(=O)[C@@H](NC(=O)[C@H](CCCNC(=N)N)NC(=O)CNC)C(C)C)[C@@H](C)CC [Sar^1, Lac^8 --AII--OEt, reference compound]
inhibition of aldosterone production pA2 [1]: 9.27

CNCC(=O)N[C@@H](CCCN=C(N)N)C(=O)N[C@H](C(=O)N[C@@H](Cc1ccc(O)cc1)C(=O)N[C@H](C(=O)N[C@@H](Cc1cnc[nH]1)C(=O)N1CCC[C@H]1C(=O)N[C@@H](C)C(=O)O)C(C)C)C(C)C [Sar^1, Val^5, Ala^8 --AII, Saralasin, reference compound]
inhibition of aldosterone production pA2 ([1]; in vitro, pA2): 9.634
vasoconstriction inhibition, pA2 ([2]; AII-induced vasoconstriction, isolated rabbit aorta, pA2): 11.10

Sar^1, HMV^8 --AII [reference compound]
inhibition of aldosterone production pA2 ([1]; in vitro, pA2): 10.589

[Sar^1, Thr^8 ]-AII
agonistic activity [5]: small
aldosterone release inhibiting effect [6]: no aldosterone release inhibiting effect
